Data from EP3033337B1, “SUBSTITUTED IMIDAZOLES AS N-TYPE CALCIUM CHANNEL BLOCKERS” (Janssen Pharmaceutica NV, priority 2013, dated 2015).
Read-outs that look alike come from different tables or passages of the source.

Assays:
human N-type Ca channel [1] = biological target: T1, human N-type Ca channel (Homo sapiens, UniProt Q00975); experiment: Calcium influx assay (FDSS), KCl depolarization, Fluo8 dye; type: cell-based; parameters: host or cells: HEK 293; conditions: HEK 293 cells expressing human N-type Ca channel; 100 mM KCl; read-out: N Type IC50 Data FDSS
How it was run: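 HEK293 cells stably expressing the human N-type Ca channel were loaded with Fluo8 and washed in choline-based buffer (pH 7.2, 2 mM CaCl2, 2 mM KCl). Cells were preincubated with serially diluted compound for 15 min in the dark. Ca influx was then recorded by fluorescence after depolarization with 100 mM KCl.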

human N-type Ca channel [2] = biological target: T1, human N-type Ca channel; experiment: Electrophysiological response, QPatch (depolarization -80 mV to +20 mV)
Description: The recombinant cell line described above was used in the measurement of electrophysiological properties with QPatch (Sophion). Cells were maintained in culture as mentioned above. Prior to the experiment, the flasks were moved to 30 °C and incubated for 48-72 hrs. On the day of assaying, cells were detached and harvested. The cell pellet was re-suspended in SMF4HEK (HyClone)/25mM HEPS at 2-5 million/ mL and placed on the QStirrer of the QPatch for 30-60 min prior to the start of the assay. […] Microtiter-Plate/Reference Buffer contained 140 mM TEA-Cl, 10mM BaCl2, 0.8 mM MgCl2, 10 mM HEPES pH ∼7.4 adjusted with TEA-OH/HCl, and ∼300mOsm. Cells were transferred to a QPatch 48 plate and gigaseal was formed. The plate was perfused with intracellular and extracellular buffer. […] In brief, cells were depolarized from resting potential of -80 mV to +20 mV and current was recorded. Data was plotted as percent inhibition vs concentration of the compound and IC50 values were generated using Graphpad Prism non-linear regression analysis.

[3] = Pulse=15, concentration range 0.01-0.3 µM
[4] = N Type IC50 Data Qpatch Pulse=1, Pulse=1, concentration range 0.01-0.3 µM
[5] = N Type IC50 Data Qpatch Pulse=15, Pulse=15, concentration range 0.3-10 µM
[6] = read-out: Qpatch Pulse=1 (percent inhibition)
[7] = N Type IC50 Data Qpatch Pulse=1, Pulse=1, concentration range 0.3-10 µM
[8] = read-out: Qpatch Pulse=15 (percent inhibition)
[9] = N Type IC50 Data Qpatch Pulse=1, Pulse=1, concentration range 0.01-1 µM
[10] = Pulse=15, concentration range 0.01-1 µM
[11] = read-out: N Type IC50 Data Qpatch Pulse=15, Pulse=15, concentration range 0.01-1 µM

T1 sequence (Q00975 whole entry): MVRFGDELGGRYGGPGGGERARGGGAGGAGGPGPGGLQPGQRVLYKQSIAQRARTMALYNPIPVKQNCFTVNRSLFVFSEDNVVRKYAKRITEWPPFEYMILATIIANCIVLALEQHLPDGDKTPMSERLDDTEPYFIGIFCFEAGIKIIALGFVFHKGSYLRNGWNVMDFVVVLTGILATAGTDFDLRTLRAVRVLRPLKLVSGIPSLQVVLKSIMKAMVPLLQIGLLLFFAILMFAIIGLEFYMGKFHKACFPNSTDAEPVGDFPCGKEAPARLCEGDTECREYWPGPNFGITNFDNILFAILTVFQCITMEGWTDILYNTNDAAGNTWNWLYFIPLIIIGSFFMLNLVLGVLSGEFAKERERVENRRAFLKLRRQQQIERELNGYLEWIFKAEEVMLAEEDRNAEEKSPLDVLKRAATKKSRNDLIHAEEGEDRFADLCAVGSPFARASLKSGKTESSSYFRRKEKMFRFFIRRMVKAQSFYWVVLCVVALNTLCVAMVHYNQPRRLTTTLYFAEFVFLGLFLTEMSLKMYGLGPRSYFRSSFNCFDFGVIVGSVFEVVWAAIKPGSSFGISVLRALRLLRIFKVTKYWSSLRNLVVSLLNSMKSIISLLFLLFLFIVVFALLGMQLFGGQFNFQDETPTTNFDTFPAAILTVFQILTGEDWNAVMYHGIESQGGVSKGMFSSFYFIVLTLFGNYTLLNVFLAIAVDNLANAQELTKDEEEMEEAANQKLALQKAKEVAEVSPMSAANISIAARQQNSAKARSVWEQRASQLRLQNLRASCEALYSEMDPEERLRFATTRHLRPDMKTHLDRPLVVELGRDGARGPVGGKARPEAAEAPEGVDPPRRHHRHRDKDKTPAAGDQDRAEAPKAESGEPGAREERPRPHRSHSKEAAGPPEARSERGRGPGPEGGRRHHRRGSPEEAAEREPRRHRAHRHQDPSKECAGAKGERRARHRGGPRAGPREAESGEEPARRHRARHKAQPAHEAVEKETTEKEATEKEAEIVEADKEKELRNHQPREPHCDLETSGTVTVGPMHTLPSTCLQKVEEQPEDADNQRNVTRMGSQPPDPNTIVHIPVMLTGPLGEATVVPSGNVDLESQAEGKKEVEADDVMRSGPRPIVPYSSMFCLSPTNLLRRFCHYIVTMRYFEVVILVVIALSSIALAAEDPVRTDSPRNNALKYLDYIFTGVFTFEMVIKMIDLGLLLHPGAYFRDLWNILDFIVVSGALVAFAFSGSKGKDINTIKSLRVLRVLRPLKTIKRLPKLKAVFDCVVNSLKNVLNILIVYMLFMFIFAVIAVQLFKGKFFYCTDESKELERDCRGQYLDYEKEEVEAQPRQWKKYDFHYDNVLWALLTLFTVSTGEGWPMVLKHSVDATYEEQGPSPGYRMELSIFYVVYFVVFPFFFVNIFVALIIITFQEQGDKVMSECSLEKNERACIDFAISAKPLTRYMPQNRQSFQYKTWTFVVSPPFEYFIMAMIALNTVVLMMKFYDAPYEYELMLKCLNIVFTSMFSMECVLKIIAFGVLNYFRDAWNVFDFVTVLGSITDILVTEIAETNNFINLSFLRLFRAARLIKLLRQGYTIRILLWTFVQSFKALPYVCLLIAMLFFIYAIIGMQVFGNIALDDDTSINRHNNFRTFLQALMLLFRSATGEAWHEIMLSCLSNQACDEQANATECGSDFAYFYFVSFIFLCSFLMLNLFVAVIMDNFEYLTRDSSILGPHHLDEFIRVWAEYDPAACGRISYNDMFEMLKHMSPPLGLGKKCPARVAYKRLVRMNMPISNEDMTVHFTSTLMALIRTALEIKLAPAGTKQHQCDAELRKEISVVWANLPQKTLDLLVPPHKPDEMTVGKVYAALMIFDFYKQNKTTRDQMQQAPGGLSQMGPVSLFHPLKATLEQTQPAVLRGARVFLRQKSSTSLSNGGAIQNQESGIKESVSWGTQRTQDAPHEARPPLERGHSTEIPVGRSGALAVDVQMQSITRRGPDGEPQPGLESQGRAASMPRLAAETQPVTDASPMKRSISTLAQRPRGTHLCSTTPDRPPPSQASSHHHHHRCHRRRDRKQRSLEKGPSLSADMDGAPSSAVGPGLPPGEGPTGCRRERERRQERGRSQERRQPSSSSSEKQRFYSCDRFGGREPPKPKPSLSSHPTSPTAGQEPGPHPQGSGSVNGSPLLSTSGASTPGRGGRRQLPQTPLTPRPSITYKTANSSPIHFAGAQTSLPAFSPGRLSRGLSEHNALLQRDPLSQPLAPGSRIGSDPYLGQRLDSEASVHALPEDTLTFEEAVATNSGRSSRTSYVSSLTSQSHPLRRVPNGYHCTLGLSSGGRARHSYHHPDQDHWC
T1 sequence (P54284 whole entry partner): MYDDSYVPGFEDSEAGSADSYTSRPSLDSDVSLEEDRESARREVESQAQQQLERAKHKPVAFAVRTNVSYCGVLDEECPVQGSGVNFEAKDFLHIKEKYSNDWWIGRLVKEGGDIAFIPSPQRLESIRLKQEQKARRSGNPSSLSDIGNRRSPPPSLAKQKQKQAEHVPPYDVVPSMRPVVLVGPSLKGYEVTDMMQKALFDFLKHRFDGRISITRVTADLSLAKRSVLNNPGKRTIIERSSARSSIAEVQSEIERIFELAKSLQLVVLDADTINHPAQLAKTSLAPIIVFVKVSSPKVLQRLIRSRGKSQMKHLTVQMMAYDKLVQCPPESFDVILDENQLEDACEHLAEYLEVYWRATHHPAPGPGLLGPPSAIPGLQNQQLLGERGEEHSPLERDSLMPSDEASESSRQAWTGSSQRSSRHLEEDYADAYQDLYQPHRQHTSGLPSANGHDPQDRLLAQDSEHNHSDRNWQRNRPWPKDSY
T1 sequence (P54289 25-956 partner limits assumed): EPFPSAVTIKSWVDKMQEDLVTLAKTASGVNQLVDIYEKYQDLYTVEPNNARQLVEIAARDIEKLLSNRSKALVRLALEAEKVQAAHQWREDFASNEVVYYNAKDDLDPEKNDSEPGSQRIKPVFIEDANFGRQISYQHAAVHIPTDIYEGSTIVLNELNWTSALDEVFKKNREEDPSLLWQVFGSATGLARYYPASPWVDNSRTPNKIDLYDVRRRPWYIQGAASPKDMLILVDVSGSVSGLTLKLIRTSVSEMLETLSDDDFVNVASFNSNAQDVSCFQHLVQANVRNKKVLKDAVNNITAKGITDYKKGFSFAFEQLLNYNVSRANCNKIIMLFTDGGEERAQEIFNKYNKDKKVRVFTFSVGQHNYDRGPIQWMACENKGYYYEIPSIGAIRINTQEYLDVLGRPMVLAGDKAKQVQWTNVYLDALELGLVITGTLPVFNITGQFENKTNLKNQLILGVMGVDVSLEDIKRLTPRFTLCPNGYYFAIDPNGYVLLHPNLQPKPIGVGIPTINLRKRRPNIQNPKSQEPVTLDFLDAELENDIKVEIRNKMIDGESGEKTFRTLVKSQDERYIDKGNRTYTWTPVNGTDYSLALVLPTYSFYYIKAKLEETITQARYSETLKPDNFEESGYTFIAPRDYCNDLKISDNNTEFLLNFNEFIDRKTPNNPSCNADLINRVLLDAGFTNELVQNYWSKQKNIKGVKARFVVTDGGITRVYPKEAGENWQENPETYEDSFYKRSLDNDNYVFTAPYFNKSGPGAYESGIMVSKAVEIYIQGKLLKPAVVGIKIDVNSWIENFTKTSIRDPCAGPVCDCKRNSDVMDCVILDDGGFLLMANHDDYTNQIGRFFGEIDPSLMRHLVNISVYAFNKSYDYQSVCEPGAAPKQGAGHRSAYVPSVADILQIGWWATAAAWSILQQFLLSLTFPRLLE
T1 sequence (P54289 957-1103 partner limits assumed): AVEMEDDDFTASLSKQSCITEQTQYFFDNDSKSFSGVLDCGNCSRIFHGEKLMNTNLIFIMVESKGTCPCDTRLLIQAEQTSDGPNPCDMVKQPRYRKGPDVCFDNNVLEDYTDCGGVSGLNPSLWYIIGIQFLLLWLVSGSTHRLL

| SMILES | IC50 (human N-type Ca channel [1]) [µM] | IC50 (human N-type Ca channel [2]; [5]) [µM] | inhibition at 10 µM (human N-type Ca channel [2]; [6]) [%] | other results |
| --- | --- | --- | --- | --- |
| CC1(C)CC(c2cn(-c3ccc(C(F)(F)F)nc3)c(CC3CC3)n2)CC(C)(C)O1 [Compound 59, 5-(2-(cyclopropylmethyl)-4-(2,2,6,6-tetramethyltetrahydro-2H-pyran-4-yl)-1H-imidazol-1-yl)-2-(trifluoromethyl)pyridine] | 4.4 | – | – | N Type IC50 Data Qpatch Pulse=1 (human N-type Ca channel [2]; concentration range 0.01-0.3 µM): poor fit(0.01-0.3 µM); N Type IC50 Data Qpatch Pulse=15 (human N-type Ca channel [2]; [3]): poor fit(0.01-0.3 µM) |
| CCOc1nccnc1-c1nc(C2CC(C)(C)OC(C)(C)C2)cn1-c1ccc(Cl)cc1 [Compound 60, 2-(1-(4-chlorophenyl)-4-(2,2,6,6-tetramethyltetrahydro-2H-pyran-4-yl)-1H-imidazol-2-yl)-3-ethoxypyrazine] | 0.321 | – | – | IC50 (human N-type Ca channel [2]; [4]): 0.247 µM; N Type IC50 Data Qpatch Pulse=15 (human N-type Ca channel [2]; [3]): poor fit(0.01-0.3 µM) |
| COc1ccccc1-c1nc(C2CC(C)(C)OC(C)(C)C2)cn1-c1ccc(OC(F)F)cc1 [Compound 61, 1-(4-(difluoromethoxy)phenyl) -2-(2-methoxyphenyl)-4-(2,2,6,6-tetramethyltetrahydro-2H-pyran-4-yl)-1H-imidazole] | 0.037 | – | – | IC50 (human N-type Ca channel [2]; [4]): 0.751 µM; IC50 (human N-type Ca channel [2]; N Type IC50 Data Qpatch Pulse=15, Pulse=15, concentration range 0.01-0.3 µM): 1.05 µM |
| COc1ccccc1-c1nc(C2CC(C)(C)OC(C)(C)C2)cn1-c1ccc(Br)c(F)c1 [Compound 62, 1-(4-bromo-3-fluorophenyl)-2-(2-methoxyphenyl)-4-(2,2,6,6-tetramethyltetrahydro-2H-pyran-4-yl)-1H-imidazole] | 0.177 | 0.413 | 81 | – |
| COc1ccccc1-c1nc(C2CC(C)(C)OC(C)(C)C2)cn1-c1ccc(F)c(Br)c1 [Compound 63, 1-(3-bromo-4-fluorophenyl)-2-(2-methoxyphenyl)-4-(2,2,6,6-tetramethyltetrahydro-2H-pyran-4-yl)-1H-imidazole] | 0.213 | 3.5 | 53 | – |
| COc1ncccc1-c1nc(C2CC(C)(C)OC(C)(C)C2)cn1-c1ccc(F)c(Br)c1 [Compound 64, 3-(1-(3-bromo-4-fluorophenyl)-4-(2,2,6,6-tetramethyltetrahydro-2H-pyran-4-yl)-1H-imidazol-2-yl)-2-methoxypyridine] | 0.36 | 1.72 | – | IC50 (human N-type Ca channel [2]; [7]): 4.06 µM |
| COc1ncccc1-c1nc(C2CC(C)(C)OC(C)(C)C2)cn1-c1ccc(Br)c(F)c1 [Compound 65, 3-(1-(4-bromo-3-fluorophenyl)-4-(2,2,6,6-tetramethyltetrahydro-2H-pyran-4-yl)-1H-imidazol-2-yl)-2-methoxypyridine] | 0.225 | 8.6 | 58 | – |
| COc1cnccc1-c1nc(C2CC(C)(C)OC(C)(C)C2)cn1-c1ccc(Cl)cc1 [Compound 66, 4-(1-(4-chlorophenyl)-4-(2,2,6,6-tetramethyltetrahydro-2H-pyran-4-yl)-1H-imidazol-2-yl)-3-methoxypyridine] | 0.049 | 1.3 | – | – |
| COc1ccncc1-c1nc(C2CC(C)(C)OC(C)(C)C2)cn1-c1ccc(Cl)cc1 [Compound 68, 3-(1-(4-chlorophenyl)-4-(2,2,6,6-tetramethyltetrahydro-2H-pyran-4-yl)-1H-imidazol-2-yl)-4-methoxypyridine] | 0.109 | 4.6 | – | – |
| COc1ccncc1-c1nc(C2CC(C)(C)OC(C)(C)C2)cn1-c1ccc(F)cc1 [Compound 69, 3-(1-(4-fluorophenyl)-4-(2,2,6,6-tetramethyltetrahydro-2H-pyran-4-yl)-1H-imidazol-2-yl)-4-methoxypyridine] | 1.43 | – | 53 | inhibition at 10 µM (human N-type Ca channel [2]; [8]): 29% |
| COc1cccnc1-c1nc(C2CC(C)(C)OC(C)(C)C2)cn1-c1ccc(F)cc1 [Compound 70, 2-(1-(4-fluorophenyl)-4-(2,2,6,6-tetramethyltetrahydro-2H-pyran-4-yl)-1H-imidazol-2-yl)-3-methoxypyridine] | 0.871 | – | 41 | – |

Second part, led by results:

| IC50 (human N-type Ca channel [1]) [µM] | IC50 (human N-type Ca channel [2]; [5]) [µM] | inhibition at 10 µM (human N-type Ca channel [2]; [6]) [%] | SMILES | other results |
| --- | --- | --- | --- | --- |
| 0.422 | – | – | COc1ncccc1-c1nc(C2CC(C)(C)OC(C)(C)C2)cn1-c1cc(F)ccc1F [Compound 71, 3-(1-(2,5-difluorophenyl)-4-(2,2,6,6-tetramethyltetrahydro-2H-pyran-4-yl)-1H-imidazol-2-yl)-2-methoxypyridine] | IC50 (human N-type Ca channel [2]; [9]): 5.83 µM; N Type IC50 Data Qpatch Pulse=15 (human N-type Ca channel [2]; [10]): poor fit(0.01- 1 µM) |
| 2.4 | – | – | COc1ncccc1-c1nc(C2CC(C)(C)OC(C)(C)C2)cn1-c1cc(F)cc(F)c1 [Compound 72, 3-(1-(3,5-difluorophenyl)-4-(2,2,6,6-tetramethyltetrahydro-2H-pyran-4-yl)-1H-imidazol-2-yl)-2-methoxypyridine] | N Type IC50 Data Qpatch Pulse=1 (human N-type Ca channel [2]; concentration range 0.01-1 µM): poor fit(0.01- 1 µM); N Type IC50 Data Qpatch Pulse=15 (human N-type Ca channel [2]; [10]): poor fit(0.01- 1 µM) |
| 8.16 | – | – | COc1ncccc1-c1nc(C2CC(C)(C)OC(C)(C)C2)cn1-c1cc(F)cc(C#N)c1 [Compound 73, 3-fluoro-5-(2-(2-methoxypyridin-3-yl)-4-(2,2,6,6-tetramethyltetrahydro-2H-pyran-4-yl)-1H-imidazol-1-yl)benzonitrile] | N Type IC50 Data Qpatch Pulse=1 (human N-type Ca channel [2]; concentration range 0.01-1 µM): poor fit(0.01- 1 µM); N Type IC50 Data Qpatch Pulse=15 (human N-type Ca channel [2]; [10]): poor fit(0.01- 1 µM) |
| 2.06 | 4.2 | – | CCOc1ccc(-n2cc(C3CC(C)(C)OC(C)(C)C3)nc2-c2cccnc2OC)cn1 [Compound 75, 3-(1-(6-ethoxypyridin-3-yl)-4-(2,2,6,6-tetramethyltetrahydro-2H-pyran-4-yl)-1H-imidazol-2-yl)-2-methoxypyridine] | IC50 (human N-type Ca channel [2]; [7]): 9.8 µM |
| 0.151 | – | – | COc1ncccc1-c1nc(C2CC(C)(C)OC(C)(C)C2)cn1-c1ccc(C#N)cc1F [Compound 76, 3-fluoro-4-(2-(2-methoxypyridin-3-yl)-4-(2,2,6,6-tetramethyltetrahydro-2H-pyran-4-yl)-1H-imidazol-1-yl)benzonitrile] | IC50 (human N-type Ca channel [2]; [9]): > 1 µM; IC50 (human N-type Ca channel [2]; [11]): > 1 µM |
| 10 | – | – | COc1cc(-n2cc(C3CC(C)(C)OC(C)(C)C3)nc2-c2cccnc2OC)ccc1C#N [Compound 77, 2-methoxy-4-(2-(2-methoxypyridin-3-yl)-4-(2,2,6,6-tetramethyltetrahydro-2H-pyran-4-yl)-1H-imidazol-1-yl)benzonitrile] | IC50 (human N-type Ca channel [2]; [9]): > 1 µM; IC50 (human N-type Ca channel [2]; [11]): > 1 µM |
| 0.234 | – | – | COc1ncccc1-c1nc(C2CC(C)(C)OC(C)(C)C2)cn1-c1ccc(C#N)c(Cl)c1 [Compound 78, 2-chloro-4-(2-(2-methoxypyridin-3-yl)-4-(2,2,6,6-tetramethyltetrahydro-2H-pyran-4-yl)-1H-imidazol-1-yl)benzonitrile] | IC50 (human N-type Ca channel [2]; [11]): > 1 µM |
| 1.33 | 3.6 | 29 | COc1ncccc1-c1nc(C2CC(C)(C)OC(C)(C)C2)cn1-c1ccc(F)c(C#N)c1 [Compound 79, 2-fluoro-5-(2-(2-methoxypyridin-3-yl)-4-(2,2,6,6-tetramethyltetrahydro-2H-pyran-4-yl)-1H-imidazol-1-yl)benzonitrile] | – |
| 0.333 | – | – | COc1ncccc1-c1nc(C2CC(C)(C)OC(C)(C)C2)cn1-c1ccc(C#N)c(F)c1 [Compound 80, 2-fluoro-4-(2-(2-methoxypyridin-3-yl)-4-(2,2,6,6-tetramethyltetrahydro-2H-pyran-4-yl)-1H-imidazol-1-yl)benzonitrile] | inhibition at 10 µM (human N-type Ca channel [2]; [8]): 28% |
